Laboratory results: ChEMBL document CHEMBL1144712, “Structure-guided design of C2-symmetric HIV-1 protease inhibitors based on a pyrrolidine scaffold” (J Med Chem, 2008)

The molecules below were run against Protease (Human immunodeficiency virus 1, UniProt Q9YQ12) (assay: Inhibition of HIV1 recombinant protease expressed in Escherichia coli).
Sequence of Protease (Q9YQ12 whole entry): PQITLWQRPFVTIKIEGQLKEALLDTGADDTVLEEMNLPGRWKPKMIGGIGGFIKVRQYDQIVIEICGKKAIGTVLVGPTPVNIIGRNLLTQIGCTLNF

| Ki | Structure (SMILES) |
| --- | --- |
| 800 nM | O=S(=O)(c1ccccc1)N(Cc1ccc(C(F)(F)F)cc1)[C@H]1CNC[C@@H]1N(Cc1ccc(C(F)(F)F)cc1)S(=O)(=O)c1ccccc1 |
| 12300 nM | C=CCN([C@H]1CNC[C@@H]1N(CC=C)S(=O)(=O)c1ccccc1)S(=O)(=O)c1ccccc1 |
| 74700 nM | C=C(C)CN([C@H]1CNC[C@@H]1N(CC(=C)C)S(=O)(=O)c1ccccc1)S(=O)(=O)c1ccccc1 |
| 460 nM | O=S(=O)(c1ccccc1)N(Cc1ccc(Br)cc1)[C@H]1CNC[C@@H]1N(Cc1ccc(Br)cc1)S(=O)(=O)c1ccccc1 |
| 1720 nM | O=[N+]([O-])c1ccc(S(=O)(=O)N(Cc2ccccc2)[C@H]2CNC[C@@H]2N(Cc2ccccc2)S(=O)(=O)c2ccc([N+](=O)[O-])cc2)cc1 |
| 1570 nM | CC(C)=CCN([C@H]1CNC[C@@H]1N(CC=C(C)C)S(=O)(=O)c1ccccc1)S(=O)(=O)c1ccccc1 |
| 670 nM | Cc1ccccc1S(=O)(=O)N(Cc1ccccc1)[C@H]1CNC[C@@H]1N(Cc1ccccc1)S(=O)(=O)c1ccccc1C |
